Results from ChEMBL document CHEMBL5108067, “Discovery of Potent OTUB1/USP8 Dual Inhibitors Targeting Proteostasis in Non-Small-Cell Lung Cancer” (J Med Chem, 2022).
Activity calls are given as the source filed them. The rule behind the calls is not given here.

Molecular target: T1, Ubiquitin thioesterase OTUB1 (Homo sapiens, UniProt Q96FW1)
Assay: Destabilization of N-terminal His-6 tagged OTUB1 (40 to 271 residues) (unknown origin) expressed in Escherichia coli BL21 (DE3) cells assessed as reduction in melting temperature at 200 uM measured for 2 hrs in presence of dithiothreitol by SYPRO orange dye based thermal shift assay
Conditions: not given

T1 sequence (Q96FW1 whole entry, the tested form may be a part): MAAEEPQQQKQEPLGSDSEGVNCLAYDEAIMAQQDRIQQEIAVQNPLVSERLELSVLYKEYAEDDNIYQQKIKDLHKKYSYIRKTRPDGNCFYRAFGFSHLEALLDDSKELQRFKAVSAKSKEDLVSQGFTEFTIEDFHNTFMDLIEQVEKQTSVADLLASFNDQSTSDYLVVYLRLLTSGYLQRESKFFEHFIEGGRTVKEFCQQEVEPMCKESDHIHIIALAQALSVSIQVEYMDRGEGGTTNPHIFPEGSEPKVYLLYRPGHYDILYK

ΔTm [°C]	Compound
1	CN1CC[C@@H](Oc2ccc(Cl)c(-c3nc4c(o3)C(=O)c3ccccc3C4=O)c2)C1
1	O=C1c2ccccc2C(=O)c2oc(-c3cccnc3)nc21

Molecular target: T1, Ubiquitin thioesterase OTUB1
Assay: Inhibition of N-terminal His-6 tagged OTUB1 (40 to 271 residues) (unknown origin) expressed in Escherichia coli BL21 (DE3) cells at 10 nM using Ub-Rho measured after 0.5 to 3 hrs by fluorescence based Plate reader method relative to control
Conditions: time 0.5-3 hrs, values are per cent of control

residual activity [%]	Compound
28.9	CN1CC[C@@H](Oc2ccc(Cl)c(-c3nc4c(o3)C(=O)c3ccccc3C4=O)c2)C1
42.4	O=C1c2ccccc2C(=O)c2oc(-c3cccnc3)nc21

Molecular target: T1, Ubiquitin thioesterase OTUB1
Assay: Inhibition of N-terminal His-6 tagged OTUB1 (40 to 271 residues) (unknown origin) expressed in Escherichia coli BL21 (DE3) cells at 100 nM using Ub-Rho measured after 0.5 to 3 hrs by fluorescence based Plate reader method relative to control
Conditions: time 0.5-3 hrs, values are per cent of control

residual activity [%]	Compound
13.7	CN1CC[C@@H](Oc2ccc(Cl)c(-c3nc4c(o3)C(=O)c3ccccc3C4=O)c2)C1
18.2	O=C1c2ccccc2C(=O)c2oc(-c3cccnc3)nc21

Molecular target: T2, Ubiquitin carboxyl-terminal hydrolase 8 (Homo sapiens) (UniProt P40818)
T2 sequence (whole entry): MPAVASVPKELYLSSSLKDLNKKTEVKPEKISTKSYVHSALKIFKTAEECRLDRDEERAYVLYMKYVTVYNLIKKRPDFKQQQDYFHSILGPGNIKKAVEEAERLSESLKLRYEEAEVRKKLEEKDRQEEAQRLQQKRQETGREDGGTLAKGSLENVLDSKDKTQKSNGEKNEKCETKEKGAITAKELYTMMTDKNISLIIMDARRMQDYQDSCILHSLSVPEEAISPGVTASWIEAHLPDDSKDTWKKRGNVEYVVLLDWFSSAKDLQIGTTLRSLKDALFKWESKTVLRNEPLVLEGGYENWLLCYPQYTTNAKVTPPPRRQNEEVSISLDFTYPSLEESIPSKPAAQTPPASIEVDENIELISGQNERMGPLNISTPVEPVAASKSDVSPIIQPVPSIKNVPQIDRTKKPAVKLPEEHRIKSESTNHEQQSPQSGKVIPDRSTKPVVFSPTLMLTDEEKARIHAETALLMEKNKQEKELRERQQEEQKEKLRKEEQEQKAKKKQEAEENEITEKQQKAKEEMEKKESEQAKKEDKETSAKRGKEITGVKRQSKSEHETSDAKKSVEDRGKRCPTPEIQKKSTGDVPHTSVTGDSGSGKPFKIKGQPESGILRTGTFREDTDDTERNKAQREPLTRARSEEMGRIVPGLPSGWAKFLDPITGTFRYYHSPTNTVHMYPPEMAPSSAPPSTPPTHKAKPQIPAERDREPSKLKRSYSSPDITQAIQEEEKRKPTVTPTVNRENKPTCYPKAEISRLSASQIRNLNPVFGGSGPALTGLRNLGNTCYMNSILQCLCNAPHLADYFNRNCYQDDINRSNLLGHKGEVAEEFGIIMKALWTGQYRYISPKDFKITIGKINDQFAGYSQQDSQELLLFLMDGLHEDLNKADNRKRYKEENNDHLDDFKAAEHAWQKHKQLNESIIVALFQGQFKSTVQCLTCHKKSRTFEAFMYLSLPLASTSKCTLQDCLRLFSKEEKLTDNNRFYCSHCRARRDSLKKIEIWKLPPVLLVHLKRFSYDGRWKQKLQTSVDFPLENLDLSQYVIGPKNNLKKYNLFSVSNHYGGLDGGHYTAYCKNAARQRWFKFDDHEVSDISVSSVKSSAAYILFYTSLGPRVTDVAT
Assay: Inhibition of N-terminal His-6 tagged USP8 (734 to 1110 residues) (unknown origin) expressed in Escherichia coli BL21 (DE3) cells at 10 nM measured after 3 hrs by fluorescence based Plate reader method relative to control
Conditions: values are per cent of control

residual activity [%]	Compound
35.8	CN1CC[C@@H](Oc2ccc(Cl)c(-c3nc4c(o3)C(=O)c3ccccc3C4=O)c2)C1
43.4	O=C1c2ccccc2C(=O)c2oc(-c3cccnc3)nc21

Molecular target: T2, Ubiquitin carboxyl-terminal hydrolase 8 (Homo sapiens)
Assay: Inhibition of N-terminal His-6 tagged USP8 (734 to 1110 residues) (unknown origin) expressed in Escherichia coli BL21 (DE3) cells at 100 nM measured after 3 hrs by fluorescence based Plate reader method relative to control
Conditions: values are per cent of control

residual activity [%]	Compound
25	CN1CC[C@@H](Oc2ccc(Cl)c(-c3nc4c(o3)C(=O)c3ccccc3C4=O)c2)C1
32.2	O=C1c2ccccc2C(=O)c2oc(-c3cccnc3)nc21

Tested on: not listed separately
Assay: Aqueous solubility of the compound measured after 24 hr by […] LC-MS/MS analysis
Assay type: physicochemical
Conditions: buffer

solubility	Compound
Soluble	CN1CC[C@@H](Oc2ccc(Cl)c(-c3nc4c(o3)C(=O)c3ccccc3C4=O)c2)C1

Molecular target: T1, Ubiquitin thioesterase OTUB1
Assay: Inhibition of N-terminal His-6 tagged OTUB1 (40 to 271 residues) (unknown origin) expressed in Escherichia coli BL21 (DE3) cells using Ub-Rho measured after 0.5 to 3 hrs by fluorescence based Plate reader method
Conditions: not given

IC50 [nM]	Compound
7.1	CN1CC[C@@H](Oc2ccc(Cl)c(-c3nc4c(o3)C(=O)c3ccccc3C4=O)c2)C1
1.7	O=C1c2ccccc2C(=O)c2oc(-c3cccnc3)nc21

Molecular target: T3, Ubiquitin carboxyl-terminal hydrolase 8 (Homo sapiens, UniProt P40818)
T3 sequence (P40818 whole entry): T2 sequence (whole entry)
Assay: Inhibition of N-terminal His-6 tagged USP8 (734 to 1110 residues) (unknown origin) expressed in Escherichia coli BL21 (DE3) cells measured after 3 hrs by fluorescence based Plate reader method
Conditions: not given

IC50 [nM]	Compound
1.27	CN1CC[C@@H](Oc2ccc(Cl)c(-c3nc4c(o3)C(=O)c3ccccc3C4=O)c2)C1
2.7	O=C1c2ccccc2C(=O)c2oc(-c3cccnc3)nc21

Molecular target: Ubiquitin carboxyl-terminal hydrolase 7 (Homo sapiens, UniProt Q93009)
Assay: Inhibition of USP7 (unknown origin) using Ub-Rho measured after 0.5 to 3 hrs
Conditions: not given

Ubiquitin carboxyl-terminal hydrolase 7, sequence (Q93009 whole entry): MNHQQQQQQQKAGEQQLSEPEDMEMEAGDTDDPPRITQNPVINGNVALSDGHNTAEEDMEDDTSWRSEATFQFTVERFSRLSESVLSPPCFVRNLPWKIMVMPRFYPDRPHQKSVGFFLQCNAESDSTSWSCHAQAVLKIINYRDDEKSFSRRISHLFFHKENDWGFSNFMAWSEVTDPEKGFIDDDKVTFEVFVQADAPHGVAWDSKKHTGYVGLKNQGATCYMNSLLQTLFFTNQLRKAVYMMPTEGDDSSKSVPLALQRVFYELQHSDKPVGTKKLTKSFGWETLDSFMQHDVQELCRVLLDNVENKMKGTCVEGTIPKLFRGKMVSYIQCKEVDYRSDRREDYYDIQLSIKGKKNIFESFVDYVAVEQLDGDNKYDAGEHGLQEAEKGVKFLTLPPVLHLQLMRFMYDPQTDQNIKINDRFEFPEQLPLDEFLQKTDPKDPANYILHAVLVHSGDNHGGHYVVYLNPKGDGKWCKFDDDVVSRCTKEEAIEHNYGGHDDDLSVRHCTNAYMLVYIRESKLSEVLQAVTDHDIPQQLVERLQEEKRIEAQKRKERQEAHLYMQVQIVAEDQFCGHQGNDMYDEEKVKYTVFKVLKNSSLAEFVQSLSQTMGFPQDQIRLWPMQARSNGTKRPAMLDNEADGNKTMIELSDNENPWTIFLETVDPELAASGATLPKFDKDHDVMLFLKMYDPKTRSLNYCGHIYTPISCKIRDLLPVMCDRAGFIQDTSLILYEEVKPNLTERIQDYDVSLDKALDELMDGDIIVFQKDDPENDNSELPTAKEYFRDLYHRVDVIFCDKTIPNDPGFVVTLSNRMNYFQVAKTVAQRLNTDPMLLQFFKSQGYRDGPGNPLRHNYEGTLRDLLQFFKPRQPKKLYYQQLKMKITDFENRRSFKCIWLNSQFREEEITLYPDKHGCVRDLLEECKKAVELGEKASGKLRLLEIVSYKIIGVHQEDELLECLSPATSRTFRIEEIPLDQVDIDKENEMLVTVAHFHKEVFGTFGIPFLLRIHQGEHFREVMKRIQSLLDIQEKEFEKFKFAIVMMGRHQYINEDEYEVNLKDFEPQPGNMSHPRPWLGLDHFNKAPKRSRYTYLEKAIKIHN

IC50 [nM]	Compound
> 10000	CN1CC[C@@H](Oc2ccc(Cl)c(-c3nc4c(o3)C(=O)c3ccccc3C4=O)c2)C1
> 10000	O=C1c2ccccc2C(=O)c2oc(-c3cccnc3)nc21

Molecular target: Ataxin-3 (Homo sapiens, UniProt P54252)
Assay: Inhibition of Ataxin-3 (unknown origin) using Ub-Rho measured after 0.5 to 3 hrs
Conditions: not given

Ataxin-3, sequence (P54252 whole entry): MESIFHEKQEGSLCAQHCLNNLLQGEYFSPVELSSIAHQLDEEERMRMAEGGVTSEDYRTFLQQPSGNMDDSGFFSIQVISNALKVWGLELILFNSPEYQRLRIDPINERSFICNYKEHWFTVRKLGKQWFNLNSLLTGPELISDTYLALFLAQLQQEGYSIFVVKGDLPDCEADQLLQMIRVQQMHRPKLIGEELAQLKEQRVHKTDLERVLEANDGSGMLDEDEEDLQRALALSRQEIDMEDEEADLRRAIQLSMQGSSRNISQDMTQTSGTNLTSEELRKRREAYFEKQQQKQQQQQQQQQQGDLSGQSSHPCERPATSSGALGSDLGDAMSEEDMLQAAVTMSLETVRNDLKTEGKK

Compound	IC50 [nM]
CN1CC[C@@H](Oc2ccc(Cl)c(-c3nc4c(o3)C(=O)c3ccccc3C4=O)c2)C1	> 10000
O=C1c2ccccc2C(=O)c2oc(-c3cccnc3)nc21	> 10000

Tested on: NCI-H1975
Assay: Antiproliferative activity against human NCI-H1975 cells harboring wild type KRAS incubated for 72 hrs by MTT assay
Assay type: functional, cell-based
Conditions: NCI-H1975, 72 h

IC50 [nM]	Compound
88	CN1CC[C@@H](Oc2ccc(Cl)c(-c3nc4c(o3)C(=O)c3ccccc3C4=O)c2)C1
98	O=C1c2ccccc2C(=O)c2oc(-c3cccnc3)nc21

Tested on: EBC-1
Assay: Antiproliferative activity against human EBC-1 cells harboring wild type KRAS incubated for 72 hrs by MTT assay
Assay type: functional, cell-based
Conditions: EBC-1, 72 h

Compound	IC50 [nM]
CN1CC[C@@H](Oc2ccc(Cl)c(-c3nc4c(o3)C(=O)c3ccccc3C4=O)c2)C1	138
O=C1c2ccccc2C(=O)c2oc(-c3cccnc3)nc21	122

Tested on: NCI-H1703
Assay: Antiproliferative activity against human NCI-H1703 cells harboring wild type KRAS incubated for 72 hrs by MTT assay
Assay type: functional, cell-based
Conditions: NCI-H1703, 72 h

IC50 [nM]	Compound
113	CN1CC[C@@H](Oc2ccc(Cl)c(-c3nc4c(o3)C(=O)c3ccccc3C4=O)c2)C1
93	O=C1c2ccccc2C(=O)c2oc(-c3cccnc3)nc21

Tested on: NCI-H23
Assay: Antiproliferative activity against human NCI-H23 cells harboring KRAS mutant incubated for 72 hrs by MTT assay
Assay type: functional, cell-based
Conditions: NCI-H23, 72 h

IC50 [nM]	Compound
266	CN1CC[C@@H](Oc2ccc(Cl)c(-c3nc4c(o3)C(=O)c3ccccc3C4=O)c2)C1
281	O=C1c2ccccc2C(=O)c2oc(-c3cccnc3)nc21

Tested on: not listed separately
Assay: Half life in ICR mouse at 10 mg/kg, po measured upto 1440 mins by LC-MS/MS analysis
Assay type: ADME, organism-based
Conditions: in vivo

half-life [min]	Compound
86.4	CN1CC[C@@H](Oc2ccc(Cl)c(-c3nc4c(o3)C(=O)c3ccccc3C4=O)c2)C1

Tested on: not listed separately
Assay: Tmax in ICR mouse at 10 mg/kg, po measured upto 1440 mins by LC-MS/MS analysis
Assay type: ADME, organism-based
Conditions: in vivo

Tmax [min]	Compound
19.8	CN1CC[C@@H](Oc2ccc(Cl)c(-c3nc4c(o3)C(=O)c3ccccc3C4=O)c2)C1

Tested on: not listed separately
Assay: Cmax in ICR mouse at 10 mg/kg, po measured upto 1440 mins by LC-MS/MS analysis
Assay type: ADME, organism-based
Set-up: dose 10 mg/kg, time < 1440 min, route po
Conditions: in vivo

Cmax [ng/mL]	Compound
313	CN1CC[C@@H](Oc2ccc(Cl)c(-c3nc4c(o3)C(=O)c3ccccc3C4=O)c2)C1

Tested on: not listed separately
Assay: AUC in ICR mouse at 1 mg/kg, iv measured upto 1440 mins by LC-MS/MS analysis
Assay type: ADME, organism-based
Set-up: time < 1440 min, dose 1 mg/kg, route iv
Conditions: in vivo, 24 h

AUC [ng·h/mL]	Compound
306	CN1CC[C@@H](Oc2ccc(Cl)c(-c3nc4c(o3)C(=O)c3ccccc3C4=O)c2)C1

Tested on: not listed separately
Assay: AUC in ICR mouse at 10 mg/kg, po measured upto 1440 mins by LC-MS/MS analysis
Assay type: ADME, organism-based
Set-up: time < 1440 min, dose 10 mg/kg, route po
Conditions: in vivo

AUC at 24 h [ng·h/mL]	Compound
229	CN1CC[C@@H](Oc2ccc(Cl)c(-c3nc4c(o3)C(=O)c3ccccc3C4=O)c2)C1

Tested on: not listed separately
Assay: Volume of distribution at steady state in ICR mouse at 1 mg/kg, iv measured upto 1440 mins by LC-MS/MS analysis
Assay type: ADME, organism-based
Conditions: in vivo, 24 h

Vdss [L/kg]	Compound
2.37	CN1CC[C@@H](Oc2ccc(Cl)c(-c3nc4c(o3)C(=O)c3ccccc3C4=O)c2)C1

Tested on: not listed separately
Assay: Oral bioavailability in ICR mouse at 10 mg/kg measured upto 1440 mins by LC-MS/MS analysis
Assay type: ADME, organism-based
Conditions: in vivo

bioavailability [%]	Compound
7.5	CN1CC[C@@H](Oc2ccc(Cl)c(-c3nc4c(o3)C(=O)c3ccccc3C4=O)c2)C1

Molecular target: T1, Ubiquitin thioesterase OTUB1
Assay: Inhibition of OTUB1 in human NCI-H1975 cells assessed as reduction in UBE2N protein level at 500 nM measured for 24 hrs by immunoblotting analysis
Assay type: cell-based
Conditions: not given

inhibition	Compound
Active	CN1CC[C@@H](Oc2ccc(Cl)c(-c3nc4c(o3)C(=O)c3ccccc3C4=O)c2)C1

Molecular target: T2, Ubiquitin carboxyl-terminal hydrolase 8 (Homo sapiens)
Assay: Inhibition of USP8 in human NCI-H1975 cells assessed as reduction in EGFR protein level at 500 nM measured for 24 hrs by immunoblotting analysis
Assay type: cell-based
Conditions: not given

inhibition	Compound
Active	CN1CC[C@@H](Oc2ccc(Cl)c(-c3nc4c(o3)C(=O)c3ccccc3C4=O)c2)C1
